Results: patent US9399649B2, “Compounds for treating spinal muscular atrophy” (PTC Therapeutics Inc., priority 2012, dated 2016)

Experiments:
[1] = system: Smn protein; experiment: Smn protein assay in cultured cells (SMN HTRF); type: cell-based, human; settings: SMA patient fibroblast cells (GM03813), 48 hours; for EC1.5x for Smn protein expression: 7-point concentration curve, concentration producing 1.5 times Smn protein vs DMSO vehicle; for maximum fold (Fold) increase of Smn protein: 7-point concentration data, relative to vehicle control
Procedure: The SMN HTRF (homogeneous time resolved fluorescence) assay is used to quantify the level of Smn protein in SMA patient fibroblast cells treated with test compounds.
Cells are thawed and cultured in DMEM-10% FBS for 72 hours. Cells are trypsinized, counted and re-suspended to a concentration of 25,000 cells/mL in DMEM-10% FBS. The cell suspensions are plated at 5,000 cells per well in a 96 well microtiter plate and incubated for 3 to 5 hours. […] Test compounds are serially diluted 3.16-fold in 100% DMSO to generate a 7-point concentration curve. 1 μL of test compound solution is transferred to cell-containing wells and cells are incubated for 48 hours in a cell culture incubator (37° C., 5% CO2, 100% relative humidity). Triplicate samples are set up for each test compound concentration. After 48 hours, the supernatant is removed from the wells and 25 μL of the RIPA lysis buffer, containing protease inhibitors, is added to the wells and incubated with shaking at room temperature for 1 hour. 25 μL of the diluent is added and then 35 μL of the resulting lysate is transferred to a 384-well plate, where each well contains 5 μL of the antibody solution (1:100 dilution of anti-SMN d2 and anti-SMN kryptate in SMN reconstitution buffer). The plate is centrifuged for 1 minute to bring the solution to the bottom of the wells, then incubated overnight at room temperature. Fluorescence for each well of the plate at 665 nm and 620 nm is measured on an EnVision multilabel plate reader (Perkin-Elmer).
The normalized fluorescence signal is calculated for each sample, Blank and vehicle control well by dividing the signal at 665 nm by the signal at 620 nm. Normalizing the signal accounts for possible fluorescence quenching due to the matrix effect of the lysate. The ΔF value (a measurement of Smn protein abundance as a percent value) for each sample well is calculated by subtracting the normalized average fluorescence for the Blank control wells from the normalized fluorescence for each sample well, then dividing this difference by the normalized average fluorescence for the Blank control wells and multiplying the resulting value by 100. The ΔF value for each sample well represents the Smn protein abundance from test compound-treated samples. The ΔF value for each sample well is divided by the ΔF value for the vehicle control wells to calculate the fold increase in Smn protein abundance relative to the vehicle control.

[2] = system: full length SMN2 minigene mRNA containing SMN2 exon 7; experiment: SMN2 minigene mRNA splicing RT-qPCR assay in cultured cells; type: cell-based, human; settings: Homo sapiens, HEK293-H; HEK293H cells stably transfected with SMN2-A minigene, 24 hours, 7-point concentration curve; concentration giving 1.5-fold full length SMN2 mRNA vs vehicle; read-out: EC1.5x for production of full length SMN2 mRNA
Procedure: The reverse transcription-quantitative PCR-based (RT-qPCR) assay is used to quantify the level of the full length SMN2 minigene mRNA containing SMN2 exon 7 in a HEK293H cell line stably transfected with said minigene and treated with a test compound.
HEK293H cells stably transfected with the SMN2-A minigene construct described above (10,000 cells/well) are seeded in 200 ut, of cell culture medium (DMEM plus 10% FBS, with 200 μg/mL hygromycin) in 96-well flat-bottom plates and the plate is immediately swirled to ensure proper dispersal of cells, forming an even monolayer of cells. Cells are allowed to attach for at least 4-6 hours. Test compounds are serially diluted 3.16-fold in 100% DMSO to generate a 7-point concentration curve. A solution of test compound (1 μL, 200× in DMSO) is added to each cell-containing well and the plate is incubated for 24 hours in a cell culture incubator (37° C., 5% CO2, 100% relative humidity). 2 replicates are prepared for each test compound concentration. The cells are then lysed in Cells-To-Ct lysis buffer and the lysate is stored at −80° C.
Primer SMN Forward A (SEQ ID NO. 1) hybridizes to a nucleotide sequence in exon 7 (nucleotide 22 to nucleotide 40), primer SMN Reverse A (SEQ ID NO. 2) hybridizes to a nucleotide sequence in the coding sequence of Firefly luciferase, SMN Probe A (SEQ ID NO. 3) hybridizes to a nucleotide sequence in exon 7 (nucleotide 50 to nucleotide 54) and exon 8 (nucleotide 1 to nucleotide 21). The combination of these three oligonucleotides detects only SMN1 or SMN2 minigenes (RT-qPCR) and will not detect endogenous SMN1 or SMN2 genes.
The SMN forward and reverse primers are used at final concentrations of 0.4 μM. The SMN probe is used at a final concentration of 0.15 μM. The GAPDH primers are used at final concentrations of 0.2 μM and the probe at 0.15 μM.
The SMN2-minigene GAPDH mix (15 μL total volume) is prepared by combining 7.5 μL of 2×RT-PCR buffer, 0.4 μL of 25×RT-PCR enzyme mix, 0.75 μL of 20×GAPDH primer-probe mix, 4.0075 μL of water, 2 μL of 10-fold diluted cell lysate, 0.06 μL of 100 μM SMN forward primer, 0.06 μL of 100 μM SMN reverse primer, and 0.225 μL of 100 μM SMN probe.
PCR is carried out at the following temperatures for the indicated time: Step 1: 48° C. (15 min); Step 2: 95° C. (10 min); Step 3: 95° C. (15 sec); Step 4: 60° C. (1 min); then repeat Steps 3 and 4 for a total of 40 cycles.
Each reaction mixture contains both SMN2-A minigene and GAPDH primersprobe sets (multiplex design), allowing simultaneous measurement of the levels of two transcripts.
Two SMN spliced products are generated from the SMN2 minigene. The first spliced product containing exon 7, corresponding to full length SMN2 mRNA, is referred to herein using the term “SMN2 minigene FL.” The second spliced product lacking exon 7 is referred to herein using the term “SMN2 minigene Δ7.”
The increase of SMN2 minigene FL mRNA relative to that in cells treated with vehicle control is determined from real-time PCR data using a modified ΔΔCt method (as described in Livak and Schmittgen, Methods, 2001, 25:402-8). The amplification efficiency (E) is calculated from the slope of the amplification curve for SMN2 minigene FL and GAPDH individually. The abundances of SMN2 minigene FL and GAPDH are then calculated as (1+E)^−Ct, where Ct is the threshold value for each amplicon. The abundance of SMN2 minigene FL is normalized to GAPDH abundance. The normalized SMN2 minigene FL abundance from test compound-treated samples is then divided by normalized SMN2 minigene FL abundance from vehicle-treated cells to determine the level of SMN2 FL mRNA relative to vehicle control.

Row | Compound | EC1.5x for Smn protein expression [1] | maximum fold (Fold) increase of Smn protein [1] | melting point | EC (1.5-fold) [2]
1 | Cc1cn2cc(-c3cc4ccc(N5CCN(C(C)C)CC5)cc4c(=O)o3)nc2c(C)n1 [Cpd 74, 3-(6,8-dimethylimidazo[1,2-a]pyrazin-2-yl)-7-[4-(propan-2-yl)piperazin-1-yl]-1H-isochromen-1-one] | **** (an EC1.5×≦0.3 nM is indicated by four stars (****)) | ***** (a fold increase >1.65 is indicated by five stars (*****)) | 260 to 262 °C | ≤ 0.1 µM
2 | CCN1CCN(c2ccc3cc(-c4cn5cc(C)nc(C)c5n4)oc(=O)c3c2)C[C@@H]1C [Cpd 135, 3-(6,8-dimethylimidazo[1,2-a]pyrazin-2-yl)-7-[(3S)-4-ethyl-3-methylpiperazin-1-yl]-1H-isochromen-1-one] | **** (an EC1.5×≦0.3 nM is indicated by four stars (****)) | ***** (a fold increase >1.65 is indicated by five stars (*****)) | 238 to 243 °C | ≤ 0.1 µM
3 | CCc1nc(C)cn2cc(-c3cc4ccc(N5CCN(C)CC5)cc4c(=O)o3)nc12 [Cpd 151, 3-(8-ethyl-6-methylimidazo[1,2-a]pyrazin-2-yl)-7-(4-methylpiperazin-1-yl)-1H-isochromen-1-one] | **** (an EC1.5×≦0.3 nM is indicated by four stars (****)) | ***** (a fold increase >1.65 is indicated by five stars (*****)) | 229 to 234 °C | ≤ 0.1 µM
4 | CCN1CCC(c2ccc3cc(-c4cn5cc(C)nc(C)c5n4)oc(=O)c3c2)CC1 [Cpd 115, 3-(6,8-dimethylimidazo[1,2-a]pyrazin-2-yl)-7-(1-ethylpiperidin-4-yl)-1H-isochromen-1-one] | **** (an EC1.5×≦0.3 nM is indicated by four stars (****)) | ***** (a fold increase >1.65 is indicated by five stars (*****)) | 215 to 217 °C | ≤ 0.1 µM
5 | Cc1nc2ccc(-c3cc4ccc(N5CCN(C6COC6)CC5)cc4c(=O)o3)cc2s1 [Cpd 107, 3-(2-methyl-1,3-benzothiazol-6-yl)-7-[4-(oxetan-3-yl)piperazin-1-yl]-1H-isochromen-1-one] |  | *** (a fold increase between >1.35 and ≦1.5 is indicated by three stars (***)) | 222 to 228 °C | 0.3 to 1 µM
6 | Cc1nc(Cl)cn2cc(-c3cc4ccc(N5CCN[C@@H](C)C5)cc4c(=O)o3)nc12 [Cpd 108, 3-(6-chloro-8-methylimidazo[1,2-a]pyrazin-2-yl)-7-[(3S)-3-methylpiperazin-1-yl]-1H-isochromen-1-one] | **** (an EC1.5×≦0.3 nM is indicated by four stars (****)) | ***** (a fold increase >1.65 is indicated by five stars (*****)) | 251 to 258 °C | ≤ 0.1 µM
7 | O=c1oc(-c2ccccn2)cc2ccc(N3CCNCC3)cc12 [Cpd 1, 7-(piperazin-1-yl)-3-(pyridin-2-yl)-1H-isochromen-1-one] |  | ** (a fold increase between >1.2 and ≦1.35 is indicated by two stars (**)) | 179 to 181 °C | 1 to 3 µM
8 | O=c1oc(-c2cn3cccc(Cl)c3n2)cc2ccc(N3CCNCC3)cc12 [Cpd 59, 3-(8-chloroimidazo[1,2-a]pyridin-2-yl)-7-(piperazin-1-yl)-1H-isochromen-1-one] |  | ** (a fold increase between >1.2 and ≦1.35 is indicated by two stars (**)) | 343 to 345 °C | 1 to 3 µM
9 | Cc1cn2cc(-c3cc4ccc(N5CCN(C)[C@H](C)C5)cc4c(=O)o3)nc2c(C)n1 [Cpd 72, 3-(6,8-dimethylimidazo[1,2-a]pyrazin-2-yl)-7-[(3R)-3,4-dimethylpiperazin-1-yl]-1H-isochromen-1-one] | *** (an EC1.5× between >0.3 nM and ≦1 nM is indicated by three stars (***)) | ***** (a fold increase >1.65 is indicated by five stars (*****)) | 252 to 254 °C | ≤ 0.1 µM
